Organism: Rattus norvegicus
Experiment: DrugMatrix - Regimen: Daily Repeat
Format: toxicity, organism-based, Sprague-Dawley
Parameters: regimen Daily Repeat, gender Male, age 6-8 weeks
Conditions: in vivo, po, route oral GAVAGE, vehicle 100 % WATER; for ABSOLUTE BASOPHIL / ABSOLUTE EOSINOPHIL / ABSOLUTE LYMPHOCYTE / ABSOLUTE MONOCYTE / ABSOLUTE SEGMENTED NEUTROPHIL / BASOPHIL / EOSINOPHIL / ERYTHROCYTE COUNT / HEMATOCRIT / HEMOGLOBIN / LEUKOCYTE COUNT / LYMPHOCYTE / MEAN CORPUSCULAR HEMOGLOBIN / MEAN CORPUSCULAR HEMOGLOBIN CONCENTRATION / MONOCYTE / NEUTROPHIL / NUCLEATED RED BLOOD CELLS / PLATELET COUNT: tissue Blood; for ALANINE AMINOTRANSFERASE / ALBUMIN / ALKALINE PHOSPHATASE / BLOOD UREA NITROGEN / CARBON DIOXIDE / CHLORIDE / CHOLESTEROL / CREATINE PHOSPHOKINASE / CREATININE / GLUCOSE / LACTATE DEHYDROGENASE / LIPASE / PHOSPHORUS / POTASSIUM / SODIUM / TOTAL BILIRUBIN / TOTAL PROTEIN / URIC ACID: tissue Plasma
[1] = 0 mg/kg, 72 h, dose level Control, time 3 day
[2] = 0 mg/kg, 120 h, dose level Control, time 5 day
[3] = 15 mg/kg, 72 h, dose level Low, time 3 day

Cc1ccc(NC(=O)c2ccc(CN3CCN(C)CC3)cc2)cc1Nc1nccc(-c2cccnc2)n1 [IMATINIB]
ABSOLUTE BASOPHIL [1]: 0 CELLS/uL | ABSOLUTE EOSINOPHIL [1]: 151.33 CELLS/uL | ABSOLUTE LYMPHOCYTE [1]: 10599.5 CELLS/uL | ABSOLUTE MONOCYTE [1]: 109.5 CELLS/uL | ABSOLUTE SEGMENTED NEUTROPHIL [1]: 1139.67 CELLS/uL | BASOPHIL [1]: 0% | EOSINOPHIL [1]: 0.83% | ERYTHROCYTE COUNT [1]: 5.54 x10E6/uL | HEMATOCRIT [1]: 35.35% | HEMOGLOBIN [1]: 13.22 G/DL | LEUKOCYTE COUNT [1]: 12 x10E3/uL | LYMPHOCYTE [1]: 89% | MEAN CORPUSCULAR HEMOGLOBIN [1]: 23.88 pg | MEAN CORPUSCULAR HEMOGLOBIN CONCENTRATION [1]: 37.4 G/DL | MONOCYTE [1]: 1% | NEUTROPHIL [1]: 9.17% | NUCLEATED RED BLOOD CELLS [1]: 0 /100WBC | PLATELET COUNT [1]: 1333.33 x10E3/uL | ALANINE AMINOTRANSFERASE [1]: 53.17 u/L | ALBUMIN [1]: 4.32 G/DL | ALKALINE PHOSPHATASE [1]: 404.33 u/L | BLOOD UREA NITROGEN [1]: 15.67 mg/dL | CARBON DIOXIDE [1]: 27.33 mmol/L | CHLORIDE [1]: 101.83 MEQ/L | CHOLESTEROL [1]: 68.67 mg/dL | CREATINE PHOSPHOKINASE [1]: 276.17 u/L | CREATININE [1]: 0.18 mg/dL | GLUCOSE [1]: 163.5 mg/dL | LACTATE DEHYDROGENASE [1]: 144.67 u/L | LIPASE [1]: 8.83 u/L | PHOSPHORUS [1]: 11.72 mg/dL | POTASSIUM [1]: 5.99 MEQ/L | SODIUM [1]: 143.57 MEQ/L | TOTAL BILIRUBIN [1]: 0.2 mg/dL | TOTAL PROTEIN [1]: 6.1 G/DL | URIC ACID [1]: 1.38 mg/dL | ABSOLUTE BASOPHIL [2]: 0 CELLS/uL | ABSOLUTE EOSINOPHIL [2]: 248.67 CELLS/uL | ABSOLUTE LYMPHOCYTE [2]: 12977.83 CELLS/uL | ABSOLUTE MONOCYTE [2]: 19.67 CELLS/uL | ABSOLUTE SEGMENTED NEUTROPHIL [2]: 1137.17 CELLS/uL | BASOPHIL [2]: 0% | EOSINOPHIL [2]: 1.67% | ERYTHROCYTE COUNT [2]: 5.82 x10E6/uL | HEMATOCRIT [2]: 36.35% | HEMOGLOBIN [2]: 13.58 G/DL | LEUKOCYTE COUNT [2]: 14.38 x10E3/uL | LYMPHOCYTE [2]: 90.5% | MEAN CORPUSCULAR HEMOGLOBIN [2]: 23.32 pg | MEAN CORPUSCULAR HEMOGLOBIN CONCENTRATION [2]: 37.42 G/DL | MONOCYTE [2]: 0.17% | NEUTROPHIL [2]: 7.67% | NUCLEATED RED BLOOD CELLS [2]: 0 /100WBC | PLATELET COUNT [2]: 1337.67 x10E3/uL | ALANINE AMINOTRANSFERASE [2]: 48.5 u/L | ALBUMIN [2]: 4.32 G/DL | ALKALINE PHOSPHATASE [2]: 354.33 u/L | BLOOD UREA NITROGEN [2]: 16 mg/dL | CARBON DIOXIDE [2]: 27.33 mmol/L | CHLORIDE [2]: 100.33 MEQ/L | CHOLESTEROL [2]: 68 mg/dL | CREATINE PHOSPHOKINASE [2]: 325.17 u/L | CREATININE [2]: 0.23 mg/dL | GLUCOSE [2]: 172 mg/dL | LACTATE DEHYDROGENASE [2]: 254.83 u/L | LIPASE [2]: 8.33 u/L | PHOSPHORUS [2]: 12.17 mg/dL | POTASSIUM [2]: 6.28 MEQ/L | SODIUM [2]: 143.57 MEQ/L | TOTAL BILIRUBIN [2]: 0.18 mg/dL | TOTAL PROTEIN [2]: 6.12 G/DL | URIC ACID [2]: 1.78 mg/dL | ABSOLUTE BASOPHIL [3]: 0 CELLS/uL | ABSOLUTE EOSINOPHIL [3]: 119.67 CELLS/uL | ABSOLUTE LYMPHOCYTE [3]: 6343 CELLS/uL | ABSOLUTE MONOCYTE [3]: 102.67 CELLS/uL | ABSOLUTE SEGMENTED NEUTROPHIL [3]: 568 CELLS/uL | BASOPHIL [3]: 0% | EOSINOPHIL [3]: 1.67% | ERYTHROCYTE COUNT [3]: 5.21 x10E6/uL | HEMATOCRIT [3]: 33.27% | HEMOGLOBIN [3]: 12.53 G/DL | LEUKOCYTE COUNT [3]: 7.13 x10E3/uL | LYMPHOCYTE [3]: 89.33% | MEAN CORPUSCULAR HEMOGLOBIN [3]: 24.03 pg | MEAN CORPUSCULAR HEMOGLOBIN CONCENTRATION [3]: 37.7 G/DL | MONOCYTE [3]: 1.33% | NEUTROPHIL [3]: 7.67% | NUCLEATED RED BLOOD CELLS [3]: 0 /100WBC | PLATELET COUNT [3]: 1102.33 x10E3/uL | ALANINE AMINOTRANSFERASE [3]: 49.67 u/L | ALBUMIN [3]: 4.23 G/DL | ALKALINE PHOSPHATASE [3]: 362.67 u/L | BLOOD UREA NITROGEN [3]: 15.33 mg/dL | CARBON DIOXIDE [3]: 28.33 mmol/L | CHLORIDE [3]: 102 MEQ/L | CHOLESTEROL [3]: 64.67 mg/dL | CREATINE PHOSPHOKINASE [3]: 198.67 u/L | CREATININE [3]: 0.21 mg/dL | GLUCOSE [3]: 165 mg/dL | LACTATE DEHYDROGENASE [3]: 128.33 u/L | LIPASE [3]: 8 u/L | PHOSPHORUS [3]: 11 mg/dL | POTASSIUM [3]: 5.66 MEQ/L | SODIUM [3]: 144.5 MEQ/L | TOTAL BILIRUBIN [3]: 0.2 mg/dL | TOTAL PROTEIN [3]: 6.03 G/DL | URIC ACID [3]: 0.97 mg/dL
